Data from US7314888B1, “Compounds and medicinal use thereof” (Toyama Chemical Co., Ltd., priority 1998, dated 2008).
Bridge positions count the residues as written; N and C are the ends. Peptide text beside a SMILES is read from it.

What was measured:
[1] = target: T1, AP-1 complex (Fos/Jun peptide) (Homo sapiens, UniProt P01100+P05412); test: Activities on AP-1 binding reaction to recognition sequence (ELISA) using Fos/Jun peptide; conditions: read-out: Inhibition rate %
T1 construct: made in house; host or cells: chemical peptide synthesis (no expression host)
Experimental: (§1) Activities on AP-1 Binding Reaction to Recognition Sequence (ELISA)
On the other hand, Jun peptide and N-terminal biotinylated tetraglycine Fos peptide containing a DNA-binding site [Nature, Vol. 373, Pages 257-261, 1995] were synthesized and separately dissolved in tris buffer (20 mM tris-hydrochloride (pH 7.5), 50 mM potassium chloride, 1 mM ethylenediaminetetraacetic acid, 10 mM magnesium chloride, 1 mM dithiothreitol, 0.5M guanidine hydrochloride, 30% glycerol). Equimolar quantities of both the solutions were mixed together, and the mixture was used as an AP-1 complex (Fos/Jun peptide). The AP-1 complex was added to avidin-coating 96-well ELISA plate (10 pmol/well), washed, and then blocked with bovine serum albumin. The product was used for binding assay using AP-1 complex.
(§2) On the basis of the above-mentioned two coated AP-1, a digoxigenin-labeled double stranded oligonucleotide (22-mer) containing an AP-1 binding sequence ([…]) which has been synthesized elsewhere was reacted in the presence and absence of a sample at room temperature for 30-60 minutes in a binding reaction solution [Hepes buffer or 25 mM tris-hydrochloric acid (pH 7.9), 0.5 mM ethylenediaminetetraacetic acid, 0.05% Nonidet P-40, 10% glycerol]. After of the reaction, unbound labeled oligonucleotide washed out with Hepes buffer solution containing 0.05% of Tween-20. Then, an anti-digoxigenin antibody labeled with peroxidase was added, and reacted with the labeled oligonucleotide bound to AP-1. After washing out the excessive antibody with Hepes buffer containing 0.05% of Tween-20, the residue was reacted for a predetermined period of time in a 100 mM citrate buffer (pH 5.0) containing hydrogen peroxide by using o-phenylenediamine as a substrate. After adding-sulfuric acid solution to each well, absorbance (492 nm) was measured. Taking the absorbance in the absence of sample as 100%, inhibition rate of sample was calculated from the absorbance in the presence of sample.

[2] = tested on: transcription factor AP-1 (nuclear extract protein prepared from HeLa cells); test: Activities on AP-1 binding reaction to recognition sequence (ELISA) using nuclear extract protein; conditions: 100 μM; ELISA using nucleus-extracted protein
Experimental: as §1
Nuclear extract protein containing transcription factor AP-1 prepared from HeLa cells was coated on 96-well ELISA plate (100 ng/well) in Hepes buffer (20 mM Hepes-potassium hydroxide (pH 7.9), 0,5 mM ethylenediamine-tetraacetic acid, 50 mM potassium chloride, 10% glycerol). After washing, a blocking treatment was carried out with bovine serum albumin, and then used for a binding assay using nuclear extract protein.
as §2

T1 sequence (P01100 137-200 limits assumed): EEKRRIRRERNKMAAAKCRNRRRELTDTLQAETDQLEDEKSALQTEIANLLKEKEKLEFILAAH
T1 sequence (P05412 252-315 limits assumed): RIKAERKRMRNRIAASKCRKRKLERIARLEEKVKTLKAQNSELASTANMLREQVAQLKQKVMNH

Compound	inhibition at 200 µM [1] [%]	inhibition at 500 µM [1] [%]	Inhibition rate [2] [%]
CC(C)COc1ccc(C(O)c2ccc(OCC(C)C)c(CCC(=O)O)c2)c(OCC(C)C)c1 (stereo not shown) [Example 15, 3-{5-[(2,4-diisobutoxyphenyl)(hydroxy)methyl]-2-isobutoxyphenyl}propionic acid]	19	64	
CC(=O)NC1CSSCC(C(N)=O)NC(=O)CNC(=O)C(CC(N)=O)NC(=O)C(C)NC(=O)C(CC(C)C)NC(=O)C(CC(=O)O)NC(=O)C(CC(C)C)NC(=O)C(CCC(N)=O)NC(=O)CNC1=O (stereo not shown) [3 (4)] (Ac-CGQLDLANGC-NH2; disulfide 1-10; configuration not given here)			64
CC(C)COc1ccc(C(NS(C)(=O)=O)c2ccc(OCC(C)C)c(CCC(=O)O)c2)c(OCC(C)C)c1 (stereo not shown) [Example 73, 3-(5-{(2,4-diisobutoxyphenyl)[(methylsulfonyl)amino]methyl}-2-isobutoxyphenyl)propanoic acid]	18	74	
CC(C)CCOc1ccc(C(=O)c2cc(C(=O)CC(C)C)cn2CCC(C)C)cc1CCC(=O)O [Example 88, 3-[5-{[1-isopentyl-4-(3-methylbutanoyl)-1H-pyrrol-2-yl]carbonyl}-2-(isopentyloxy)phenyl]propanoic acid]	29	72	
Ac-Asn-Cys^2-Gly-Asn-Leu-Leu-Ala-Leu-Gly-Ser-Cys^11-NH2 (Cys^2-Cys^11) (GNLLALGSC; not fully specified; Ac-Asn-Cys N-term, C-amide, disulfide; printed: Gly-Asn-Leu-Leu-Ala-Leu-Gly-Ser-Cys) [3(7)]			74
CC(C)COc1ccc(C(=O)c2ccc(OCC(C)C)c(OCC(C)C)c2)cc1CCC(=O)O [Example 47, 3-[5-(3,4-diisobutoxybenzoyl)-2-isobutoxyphenyl]-propanoic acid]	35	92	
CC(=O)NC1CSSCC(C(N)=O)NC(=O)CNC(=O)C(CC(C)C)NC(=O)C(C)NC(=O)C(CC(C)C)NC(=O)C(CO)NC(=O)C(CC(C)C)NC(=O)C(CCC(N)=O)NC(=O)CNC1=O (stereo not shown) [3 (2)] (Ac-CGQLSLALGC-NH2; disulfide 1-10; configuration not given here)			94
CC(C)COc1ccc(Cc2ccc(OCC(C)C)c(CC(=O)O)c2)c(OCC(C)C)c1 [Example 16, 2-[5-(2,4-diisobutoxybenzyl)-2-isobutoxyphenyl]acetic acid]	21	65	
CC(=O)NC1CSSCC(C(N)=O)NC(=O)CNC(=O)C(CC(=O)O)NC(=O)C(C)NC(=O)C(CC(C)C)NC(=O)C(CO)NC(=O)C(CC(C)C)NC(=O)C(CCC(N)=O)NC(=O)CNC1=O (stereo not drawn) [3(5), Ac-Cys^1-Gly-Gln-Leu-Ser-Leu-Ala-Asp-Gly-Cys^10-NH2 (Cys^1-Cys^10)] (Ac-CGQLSLADGC-NH2; disulfide 1-10; configuration not given here)			43
CC(=O)NC1CSSCC(C(N)=O)NC(=O)C(CC(=O)O)NC(=O)CNC(=O)C(CC(C)C)NC(=O)C(C)NC(=O)C(CC(C)C)NC(=O)C(CC(C)C)NC(=O)C(CC(N)=O)NC(=O)CNC1=O (stereo not shown) [3 (10)] (Ac-CGNLLALGDC-NH2; disulfide 1-10; configuration not given here)			76
CC(C)COc1ccc(C(O)c2ccc(OCC(C)C)c(CC(=O)O)c2)c(OCC(C)C)c1 (stereo not shown) [Example 9, 2-{5-[(2,4-diisobutoxyphenyl)(hydroxy)methyl]-2-isobutoxyphenyl}-acetic acid]	23	37	
CC(=O)NC1CSSCC(C(N)=O)NC(=O)CNC(=O)C(CC(=O)O)NC(=O)C(C)NC(=O)C(CC(C)C)NC(=O)C(CC(=O)O)NC(=O)C(CC(C)C)NC(=O)C(CC(N)=O)NC(=O)CNC1=O (stereo not shown) [3 (6)] (Ac-CGNLDLADGC-NH2; disulfide 1-10; configuration not given here)			42
CC(C)COc1cc(OCC(C)C)cc(C(=O)c2ccc(OCC(C)C)c(CCC(=O)O)c2)c1 [Example 41, 3-[5-(3,5-diisobutoxybenzoyl)-2-isobutoxyphenyl]propanoic acid]	27	78	
CC(C)COc1ccc(OCC(C)C)c(C(=O)c2ccc(OCC(C)C)c(CCC(=O)O)c2)c1 [Example 43, 3-[5-(2,5-diisobutoxybenzoyl)-2-isobutoxyphenyl]-propanoic acid]	28	72	
CC(C)COc1ccc(C(=O)c2ccc(OCC(C)C)c(CCC(=O)O)c2)c(O)c1 [Example 38, 3-[5-(2-hydroxy-4-isobutoxybenzoyl)-2-isobutoxyphenyl]-propanoic acid]	18	91	
CC(C)COc1ccc(C(=O)c2ccc3c(c2)cc(C(=O)O)n3CC(C)C)c(OCC(C)C)c1 [Example 82, 5-(2,4-diisobutoxybenzoyl)-1-isobutyl-1H-indole-2-carboxylic acid]	28	97	
CC(C)COc1ccc(C(=O)c2ccc(OCC(C)C)c(CCC(=O)NS(C)(=O)=O)c2)c(OCC(C)C)c1 [Example 58, N-{3-[5-(2,4-diisobutoxybenzoyl)-2-isobutoxyphenyl]propanoyl}methanesulfonamide]	22	88	
CC(C)COc1ccc(C(=O)c2ccc(OCC(C)C)c(OCC(=O)O)c2)c(OCC(C)C)c1 [Example 53, 2-[5-(2,4-diisobutoxybenzoyl)-2-isobutoxyphenoxy]acetic acid]	30	79	
CC(C)CC=C1CCC2(CC1)SC[C@H](C(=O)O)N2C(=O)CCC(C)C (stereo partly drawn) [Example 4, (3S)-8-(3-methylbutylidene)-4-(4-methylpentanoyl)-1-thia-4-azaspiro[4.5]-decane-3-carboxylic acid]	8	15	
CC(C)COc1ccc(C(=O)c2ccc(OCC(C)C)c(CC(=O)O)c2)c(OCC(C)C)c1 [Example 7, 2-[5-(2,4-diisobutoxybenzoyl)-2-isobutoxyphenyl]acetic acid]	14	46	
Ac-Cys^1-Gly-Gln-Leu-Asp-Leu-Ala-Asp-Gly-Cys^10-NH2 (Cys^1-Cys^10) (GQLDLADGC; not fully specified; N-acetyl Cys, C-amide, Cys1-Cys10 disulfide; printed: Gly-Gln-Leu-Asp-Leu-Ala-Asp-Gly-Cys) [Example 2]			81
CC(C)CCOc1ccc(C(=O)c2ccc3c(c2)n(CCC(C)C)c(=O)n3CCC(C)C)cc1CC(=O)O [Example 90, 2-[5-[(1,3-diisopentyl-2-oxo-2,3-dihydro-1H-benzimidazol-5-yl)carbonyl]-2-(isopentyloxy)phenyl]-acetic acid]	26	96	
CC(C)COc1ccc(C(=O)c2ccc(OCC(C)C)c(/C=C/C(=O)O)c2)c(OCC(C)C)c1 [Example 13, 3-[5-(2,4-diisobutoxybenzoyl)-2-isobutoxyphenyl]-2-propenoic acid]	43	96	
CC(C)COc1ccc(C(=O)c2ccc(OCC(C)C)c(C(=O)NCC(=O)O)c2)c(OCC(C)C)c1 [Example 57, 2-{[5-(2,4-diisobutoxybenzoyl)-2-isobutoxybenzoyl]amino}-acetic acid]	13	62	
CC(C)COc1ccc(C(=O)c2ccc(OCC(C)C)c(C(=O)O)c2)c(OCC(C)C)c1 [Example 8, 5-(2,4-diisobutoxybenzoyl)-2-isobutoxybenzoic acid]	9	20	
CC(=O)NC1CSSCC(C(N)=O)NC(=O)CNC(=O)CNC(=O)C(C)NC(=O)C(CC(C)C)NC(=O)C(CC(=O)O)NC(=O)C(CC(C)C)NC(=O)C(CCC(N)=O)NC(=O)CNC1=O (stereo not drawn) [3(3), Ac-Cys^1-Gly-Gln-Leu-Asp-Leu-Ala-Gly-Gly-Cys^10-NH2 (Cys^1-Cys^10)] (Ac-CGQLDLAGGC-NH2; disulfide 1-10; configuration not given here)			43
CC(C)COc1ccc(C(O)c2ccc(OCC(C)C)c(C=CC(=O)O)c2)c(OCC(C)C)c1 (stereo not shown) [Example 14, 3-[5-[(2,4-diisobutoxyphenyl)(hydroxy)methyl]-2-isobutoxyphenyl]-2-propenoic acid]	21	90	
